Results on 3 compounds are retold here after paper PMC7756392, “Syntheses of Thailandepsin B Pseudo‐Natural Products: Access to New Highly Potent HDAC Inhibitors via Late‐Stage Modification” (Chemistry (Weinheim an Der Bergstrasse, Germany), 2020).

For assay [1], the target named is T1, human recombinant HDAC1 (Homo sapiens, UniProt Q13547).
T1 construct: purchased BPS Bioscience 50051
Kind of assay: ZMAL trypsin assay, HDAC1. The assay is classed as biochemical. The note with it: for inhibition at 10 µM: ZMAL trypsin assay. Here is the method: (§1) [28] Assays for HDAC1/6 were prepared according to: B. Heltweg , J. Trapp , M. Jung , Methods 2005, 36, 332–337; assays for HDAC8 were prepared according to: J. Senger , J. Melesina , M. Marek , C. Romier , I. Oehme , O. Witt , W. Sippl , M. Jung , J. Med. Chem. 2016, 59, 1545–1555. […]
(§2) hHDAC1/6: Activity assays were performed in OptiPlateTM-96 F black microplates (PerkinElmer). Commercial available enzymes (human recombinant HDAC1; BPS Bioscience, catalog no. 50051 and human recombinant HDAC6; BPS Bioscience, catalog no. 50006) were used. Total assay volume of 60 µL contains 42 µl of assay buffer (50 mM Tris -HCl, pH 8.0, 137 mM NaCl, 2.7 mM KCl, 1 mM MgCl2, 0.2 mM TCEP and 1 mg/mL bovine serum albumin), 10 µL of enzyme solution in assay buffer, 3 µL of increasing concentrations of inhibitors in DMSO and 5 μL of the fluorogenic substrate ZMAL (Z -(Ac)Lys-AMC) (126 μM). After incubation (90 min, 37 °C) 60 µL of stop solution, containing 5 μL Trichostatin A (TSA) (33 μM) and 10 μL trypsin (6 mg/mL) in trypsin buffer (Tris-HCl 50 mM, pH 8.0, NaCl 100 mM), were added. […]

The target in assay [2] is T2, human recombinant HDAC6 (Homo sapiens, UniProt Q9UBN7).
T2 construct: purchased BPS Bioscience 50006
T2 sequence (Q9UBN7 1-1215): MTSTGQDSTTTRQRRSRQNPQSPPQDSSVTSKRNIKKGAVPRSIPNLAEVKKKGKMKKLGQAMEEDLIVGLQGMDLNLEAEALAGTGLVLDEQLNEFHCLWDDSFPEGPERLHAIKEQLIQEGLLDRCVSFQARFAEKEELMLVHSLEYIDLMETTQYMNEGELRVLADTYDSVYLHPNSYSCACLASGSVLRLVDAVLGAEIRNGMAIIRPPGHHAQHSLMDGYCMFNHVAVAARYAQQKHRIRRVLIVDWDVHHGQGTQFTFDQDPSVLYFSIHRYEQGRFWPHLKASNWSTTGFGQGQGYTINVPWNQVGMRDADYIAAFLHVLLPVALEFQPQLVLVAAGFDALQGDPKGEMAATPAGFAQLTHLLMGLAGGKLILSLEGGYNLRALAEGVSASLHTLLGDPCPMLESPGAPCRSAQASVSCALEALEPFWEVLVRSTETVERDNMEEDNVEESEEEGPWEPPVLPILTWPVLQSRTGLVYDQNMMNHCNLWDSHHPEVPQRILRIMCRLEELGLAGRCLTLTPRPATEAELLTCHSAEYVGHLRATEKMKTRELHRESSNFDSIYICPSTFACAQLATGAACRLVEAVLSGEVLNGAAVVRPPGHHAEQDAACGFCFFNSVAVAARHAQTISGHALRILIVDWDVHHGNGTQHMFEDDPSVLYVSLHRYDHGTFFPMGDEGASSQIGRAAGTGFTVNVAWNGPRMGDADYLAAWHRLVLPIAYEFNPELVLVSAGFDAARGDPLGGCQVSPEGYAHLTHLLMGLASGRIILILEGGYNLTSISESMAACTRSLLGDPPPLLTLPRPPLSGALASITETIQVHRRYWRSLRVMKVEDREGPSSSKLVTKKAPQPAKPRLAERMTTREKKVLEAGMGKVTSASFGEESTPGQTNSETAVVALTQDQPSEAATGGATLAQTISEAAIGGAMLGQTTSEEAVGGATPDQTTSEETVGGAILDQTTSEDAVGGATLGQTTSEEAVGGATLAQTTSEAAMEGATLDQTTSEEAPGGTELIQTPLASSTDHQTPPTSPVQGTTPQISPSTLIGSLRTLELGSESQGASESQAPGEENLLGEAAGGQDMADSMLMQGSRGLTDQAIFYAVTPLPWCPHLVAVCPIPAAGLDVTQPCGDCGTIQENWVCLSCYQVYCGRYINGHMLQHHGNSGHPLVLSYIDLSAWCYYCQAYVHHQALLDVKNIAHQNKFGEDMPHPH
Kind of assay: ZMAL trypsin assay, HDAC6. It counts as biochemical. The note with it: for inhibition at 10 µM: ZMAL trypsin assay. Here is the method: as §1, §2

T1 sequence (Q13547 whole entry): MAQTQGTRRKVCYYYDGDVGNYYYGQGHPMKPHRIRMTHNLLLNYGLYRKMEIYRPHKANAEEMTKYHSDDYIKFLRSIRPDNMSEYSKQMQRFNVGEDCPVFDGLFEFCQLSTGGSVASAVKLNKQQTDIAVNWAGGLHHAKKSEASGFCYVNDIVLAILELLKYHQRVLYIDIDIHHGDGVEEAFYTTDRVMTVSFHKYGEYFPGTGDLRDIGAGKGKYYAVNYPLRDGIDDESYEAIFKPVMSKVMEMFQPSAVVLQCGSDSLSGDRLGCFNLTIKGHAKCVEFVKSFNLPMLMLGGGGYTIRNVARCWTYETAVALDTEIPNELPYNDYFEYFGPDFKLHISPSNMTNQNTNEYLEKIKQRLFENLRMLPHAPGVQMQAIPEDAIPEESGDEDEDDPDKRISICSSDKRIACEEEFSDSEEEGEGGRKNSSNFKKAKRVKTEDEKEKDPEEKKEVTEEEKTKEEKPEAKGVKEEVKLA

For orientation: inhibition means the relative decrease from the control value, in per cent. For `C=C[C@@H]1CC(=O)N[C@H](CCCC)C(=O)N[C@H](C)C(=O)N[C@H]([C@@H](C)CC)[C@@H](O[Si](C)(C)C(C)(C)C)CC(=O)O1` [compound 9], in assay [1], the “HDAC1 inhibition (in words)” value is given as “did not show inhibition” and the inhibition at 10 µM was < 5%. In addition, in assay [2], the “HDAC6 inhibition (in words)” value was “did not show inhibition” and the inhibition at 10 µM was < 5%.
With `C=C[C@@H]1CC(=O)N[C@H](CCCC)C(=O)N[C@H](C)C(=O)N[C@H]([C@@H](C)CC)[C@@H](O)CC(=O)O1` [compound 28], in assay [1], the “HDAC1 inhibition (in words)” value was “did not show inhibition” and the inhibition at 10 µM is < 5%. In assay [2], the “HDAC6 inhibition (in words)” value was “did not show inhibition” and the inhibition at 10 µM is < 5%.
As for `CCCC[C@H]1NC(=O)C[C@@H](/C=C/CCC(=O)N(OC(=O)OC(C)(C)C)C(=O)OC(C)(C)C)OC(=O)C[C@H](O[Si](C)(C)C(C)(C)C)[C@@H]([C@@H](C)CC)NC(=O)[C@@H](C)NC1=O` [compound 35], in assay [1], the “HDAC1 inhibition (in words)” value is recorded as “not active” and the inhibition at 10 µM is < 5%. In addition, in assay [2], the “HDAC6 inhibition (in words)” value is on record as “not active” and the inhibition at 10 µM is < 5%.
